Measurements as given in patent US8048825B2, “Haloalkylsulfonanilide derivatives or salt thereof, herbicide comprising the derivatives as active ingredient, and use of the herbicide” (Nihon Nohyaku Co., Ltd., priority 2006, dated 2011).

Columns and labels:
Type in all cases: in vivo
[1] = test system: Scirpus juncoides; assay: Herbicidal effect on paddy field weeds of post-emergence stage (Post), Test Example 2; settings: one-leaf stage, 1000 g/ha as active ingredient, examined after 21 days
Summary of the method: (§1)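 Post-emergence paddy test: formulated compound added to 5 cm standing water at 1000 g/ha a.i. when weeds reached one-leaf stage in clay loam pots in greenhouse. Growth inhibition rated 21 days later versus untreated control on a 0 (0%) to 5 (100%) scale.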

[2] = test system: Echinochloa crus-galli; assay: as above; settings: one-leaf stage, 1000 g/ha as active ingredient, examined after 21 days
Summary of the method: as §1

[3] = test system: Lindernia procumbens; assay: as above; settings: one-leaf stage, 1000 g/ha as active ingredient, examined after 21 days
Summary of the method: as §1

[4] = test system: Scirpus juncoides; assay: Herbicidal efficacy on paddy field weeds of pre-emergence stage (Pre), Test Example 1; settings: 1000 g/ha as active ingredient, examined after 21 days
Summary of the method: (§2)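 Pre-emergence paddy test: 1000 g/ha active ingredient, formulated and water-diluted, dropped onto 5 cm floodwater one day after sowing both weeds in clay loam. After 21 days in greenhouse, inhibition relative to untreated control rated on 0 (0%) to 5 (100%) scale.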

[5] = test system: Lindernia procumbens; assay: as above; settings: 1000 g/ha as active ingredient, examined after 21 days
Summary of the method: as §2

Row | Compound | Scirpus juncoides post (herbicidal effect) [1] | Echinochloa crus-galli post (herbicidal effect) [2] | Lindernia procumbens post (herbicidal effect) [3] | Scirpus juncoides pre (herbicidal effect) [4] | Lindernia procumbens pre (herbicidal effect) [5]
1 | CCOC(=O)N(c1ccccc1CN1CCC(c2c(Cl)cccc2Cl)OC1=O)S(=O)(=O)C(F)(F)F (centres unmarked) [Compound 1-274] | 4 (90%-99% herbicidal effect, phytotoxicity) | 4 (90%-99% herbicidal effect, phytotoxicity) | 5 (100% herbicidal effect, phytotoxicity) | 4 (90%-99% herbicidal effect, phytotoxicity) | 5 (100% herbicidal effect, phytotoxicity)
2 | Cc1ccccc1C1CCN(Cc2ccccc2NS(=O)(=O)C(F)(F)F)C(=O)O1 (centres unmarked) [Compound 1-283] | 4 (90%-99% herbicidal effect, phytotoxicity) | 4 (90%-99% herbicidal effect, phytotoxicity) | 5 (100% herbicidal effect, phytotoxicity) | 5 (100% herbicidal effect, phytotoxicity) | 5 (100% herbicidal effect, phytotoxicity)
3 | CCOC(=O)N(c1ccccc1CN1CCC(c2ccccc2C)OC1=O)S(=O)(=O)C(F)(F)F (centres unmarked) [Compound 1-285] | 4 (90%-99% herbicidal effect, phytotoxicity) | 4 (90%-99% herbicidal effect, phytotoxicity) | 5 (100% herbicidal effect, phytotoxicity) | 4 (90%-99% herbicidal effect, phytotoxicity) | 5 (100% herbicidal effect, phytotoxicity)
4 | CCOC(=O)N(c1ccccc1CN1CCC(c2ccccc2C(F)(F)F)OC1=O)S(=O)(=O)C(F)(F)F (centres unmarked) [Compound 1-296] | 4 (90%-99% herbicidal effect, phytotoxicity) | 4 (90%-99% herbicidal effect, phytotoxicity) | 5 (100% herbicidal effect, phytotoxicity) | 4 (90%-99% herbicidal effect, phytotoxicity) | 5 (100% herbicidal effect, phytotoxicity)
5 | CCC1(c2ccccc2)CCN(Cc2ccccc2NS(=O)(=O)C(F)(F)F)C(=O)O1 (centres unmarked) [Compound 1-316] | 4 (90%-99% herbicidal effect, phytotoxicity) | 4 (90%-99% herbicidal effect, phytotoxicity) | 5 (100% herbicidal effect, phytotoxicity) | 4 (90%-99% herbicidal effect, phytotoxicity) | 5 (100% herbicidal effect, phytotoxicity)
6 | CCC1(c2ccccc2)CCN(Cc2ccccc2N(C(=O)OC)S(=O)(=O)C(F)(F)F)C(=O)O1 (centres unmarked) [Compound 1-317] | 4 (90%-99% herbicidal effect, phytotoxicity) | 4 (90%-99% herbicidal effect, phytotoxicity) | 5 (100% herbicidal effect, phytotoxicity) | 4 (90%-99% herbicidal effect, phytotoxicity) | 5 (100% herbicidal effect, phytotoxicity)
7 | CCOC(=O)N(c1ccccc1CN1CCC(CC)(c2ccccc2)OC1=O)S(=O)(=O)C(F)(F)F (centres unmarked) [Compound 1-318] | 4 (90%-99% herbicidal effect, phytotoxicity) | 4 (90%-99% herbicidal effect, phytotoxicity) | 5 (100% herbicidal effect, phytotoxicity) | 4 (90%-99% herbicidal effect, phytotoxicity) | 5 (100% herbicidal effect, phytotoxicity)
8 | CCC1(c2ccccc2)CCN(Cc2ccccc2N(C(=O)OCC(C)C)S(=O)(=O)C(F)(F)F)C(=O)O1 (centres unmarked) [Compound 1-321] | 4 (90%-99% herbicidal effect, phytotoxicity) | 4 (90%-99% herbicidal effect, phytotoxicity) | 5 (100% herbicidal effect, phytotoxicity) | 4 (90%-99% herbicidal effect, phytotoxicity) | 5 (100% herbicidal effect, phytotoxicity)
9 | CC(C)(C)C1(C)CCN(Cc2ccccc2NS(=O)(=O)C(F)(F)F)C(=O)O1 (centres unmarked) [Compound 1-327] | 4 (90%-99% herbicidal effect, phytotoxicity) | 4 (90%-99% herbicidal effect, phytotoxicity) | 5 (100% herbicidal effect, phytotoxicity) | 5 (100% herbicidal effect, phytotoxicity) | 5 (100% herbicidal effect, phytotoxicity)
10 | CCOC(=O)N(c1ccccc1CN1CCC(C)(C(C)(C)C)OC1=O)S(=O)(=O)C(F)(F)F (centres unmarked) [Compound 1-329] | 4 (90%-99% herbicidal effect, phytotoxicity) | 4 (90%-99% herbicidal effect, phytotoxicity) | 5 (100% herbicidal effect, phytotoxicity) | 5 (100% herbicidal effect, phytotoxicity) | 5 (100% herbicidal effect, phytotoxicity)
11 | CC(C)COC(=O)N(c1ccccc1CN1CCC(C)(C(C)(C)C)OC1=O)S(=O)(=O)C(F)(F)F (centres unmarked) [Compound 1-332] | 4 (90%-99% herbicidal effect, phytotoxicity) | 4 (90%-99% herbicidal effect, phytotoxicity) | 5 (100% herbicidal effect, phytotoxicity) | 5 (100% herbicidal effect, phytotoxicity) | 5 (100% herbicidal effect, phytotoxicity)
12 | COC(=O)N(c1ccccc1CN1CCC(C(F)(F)F)(C(F)(F)F)OC1=O)S(=O)(=O)C(F)(F)F [Compound 1-339] | 4 (90%-99% herbicidal effect, phytotoxicity) | 4 (90%-99% herbicidal effect, phytotoxicity) | 5 (100% herbicidal effect, phytotoxicity) | 4 (90%-99% herbicidal effect, phytotoxicity) | 5 (100% herbicidal effect, phytotoxicity)
13 | CC(C)COC(=O)N(c1ccccc1CN1CCC(C(F)(F)F)(C(F)(F)F)OC1=O)S(=O)(=O)C(F)(F)F [Compound 1-343] | 4 (90%-99% herbicidal effect, phytotoxicity) | 4 (90%-99% herbicidal effect, phytotoxicity) | 5 (100% herbicidal effect, phytotoxicity) | 5 (100% herbicidal effect, phytotoxicity) | 5 (100% herbicidal effect, phytotoxicity)
14 | COC(=O)N(c1ccccc1CN1CCC(c2c(C)cccc2C)OC1=O)S(=O)(=O)C(F)(F)F (centres unmarked) [Compound 1-361] | 4 (90%-99% herbicidal effect, phytotoxicity) | 4 (90%-99% herbicidal effect, phytotoxicity) | 5 (100% herbicidal effect, phytotoxicity) | 5 (100% herbicidal effect, phytotoxicity) | 5 (100% herbicidal effect, phytotoxicity)
15 | CCOC(=O)N(c1ccccc1CN1CCC(c2c(C)cccc2C)OC1=O)S(=O)(=O)C(F)(F)F (centres unmarked) [Compound 1-362] | 4 (90%-99% herbicidal effect, phytotoxicity) | 4 (90%-99% herbicidal effect, phytotoxicity) | 5 (100% herbicidal effect, phytotoxicity) | 4 (90%-99% herbicidal effect, phytotoxicity) | 5 (100% herbicidal effect, phytotoxicity)
16 | CC1(C2(C)CCN(Cc3ccccc3NS(=O)(=O)C(F)(F)F)C(=O)O2)CC1 (centres unmarked) [Compound 1-371] | 4 (90%-99% herbicidal effect, phytotoxicity) | 4 (90%-99% herbicidal effect, phytotoxicity) | 5 (100% herbicidal effect, phytotoxicity) | 5 (100% herbicidal effect, phytotoxicity) | 5 (100% herbicidal effect, phytotoxicity)
17 | CCOC(=O)N(c1ccccc1CN1CCC(C)(C2(C)CC2)OC1=O)S(=O)(=O)C(F)(F)F (centres unmarked) [Compound 1-373] | 4 (90%-99% herbicidal effect, phytotoxicity) | 4 (90%-99% herbicidal effect, phytotoxicity) | 5 (100% herbicidal effect, phytotoxicity) | 5 (100% herbicidal effect, phytotoxicity) | 5 (100% herbicidal effect, phytotoxicity)
18 | CC(C)COC(=O)N(c1ccccc1CN1CCC(C)(C2(C)CC2)OC1=O)S(=O)(=O)C(F)(F)F (centres unmarked) [Compound 1-376] | 4 (90%-99% herbicidal effect, phytotoxicity) | 4 (90%-99% herbicidal effect, phytotoxicity) | 5 (100% herbicidal effect, phytotoxicity) | 5 (100% herbicidal effect, phytotoxicity) | 5 (100% herbicidal effect, phytotoxicity)
19 | CC1(C2CCC2)CCN(Cc2ccccc2NS(=O)(=O)C(F)(F)F)C(=O)O1 (centres unmarked) [Compound 1-382] | 4 (90%-99% herbicidal effect, phytotoxicity) | 4 (90%-99% herbicidal effect, phytotoxicity) | 5 (100% herbicidal effect, phytotoxicity) | 5 (100% herbicidal effect, phytotoxicity) | 5 (100% herbicidal effect, phytotoxicity)
